Tests used:
Cavia porcellus [1] = assay: Amount of ouabain needed for production of ventricular fibrillation at a dose of 4 mg/kg (iv given 5 min prior) in guinea pig; format: functional, Cardiac ventricle
Cavia porcellus [2] = assay: Amount of ouabain needed for production of ventricular extra-systoles at a dose of 4 mg/kg (iv given 5 min prior) in guinea pig; format: functional, Cardiac ventricle
Cavia porcellus [3] = assay: Amount of ouabain needed for production of ventricular arrhythmias that causes death in guinea pig by cardiac arrest at a dose of 4 mg/kg iv given 5 min prior; format: functional, Cardiac ventricle
Rattus norvegicus [4] = assay: Acute toxicity in secondary evaluation when administered intravenously (iv) against aconitine-induced arrhythmias in anesthetized rats. Relative potency with respect to quinidine.; format: functional, organism-based
Rattus norvegicus [5] = assay: (§1) Acute toxicity in secondary evaluation when administered intravenously (iv) against aconitine-induced arrhythmias in anesthetized rats; format: functional, organism-based
Rattus norvegicus [6] = assay: Incidence of arrhythmias in rats after a intravenal administration at 4 mg/kg, expressed as no. of positive cases out of no. of tested cases (10); format: functional
Rattus norvegicus [7] = assay: (§2) Acute toxicity in secondary evaluation when administered intravenously (iv) against aconitine-induced arrhythmias in anesthetized rats.; format: functional, organism-based
[8] = as §1; format: organism-based; conditions: rat, in vivo
Rattus norvegicus [9] = organism: Rattus norvegicus; assay: Relative potency with reference to quinidine; format: functional
Rattus norvegicus [10] = assay: Tested for incidence of arrhythmias in rats after a intravenal administration of 4 mg/kg expressed as no. of positive cases out of no. of tested cases (10); format: functional
Rattus norvegicus [11] = assay: Effective dose against aconitine-induced arrhythmia after intravenal administration in anesthetized rats; format: functional
[12] = Acute toxicity determined after intravenal administration in mice; format: organism-based; conditions: mouse, in vivo, iv
[13] = as §2; format: organism-based; conditions: rat, in vivo
Cavia porcellus [14] = assay: Amount of ouabain needed for production of ventricular extra-systoles at a dose of 2 mg/kg (iv given 5 min prior) in guinea pig; format: functional, Cardiac ventricle
Cavia porcellus [15] = assay: Amount of ouabain needed for production of ventricular arrhythmias that causes death in guinea pig by cardiac arrest at a dose of 2 mg/kg iv given 5 min prior; format: functional, Cardiac ventricle
Cavia porcellus [16] = assay: Amount of ouabain needed for production of ventricular fibrillation at a dose of 2 mg/kg (iv given 5 min prior) in guinea pig; format: functional, Cardiac ventricle
Rattus norvegicus [17] = assay: Tested for incidence of arrhythmias in rats after a intravenal administration of 0.5 mg/kg expressed as no. of positive cases out of no. of tested cases (10); format: functional
Cavia porcellus [18] = assay: Amount of ouabain needed for production of ventricular extra-systoles at a dose of 1 mg/kg (iv given 5 min prior) in guinea pig; format: functional, Cardiac ventricle
Cavia porcellus [19] = assay: Amount of ouabain needed for production of ventricular arrhythmias that causes death in guinea pig by cardiac arrest at a dose of 1 mg/kg iv given 5 min prior; format: functional, Cardiac ventricle
Cavia porcellus [20] = assay: Amount of ouabain needed for production of ventricular fibrillation at a dose of 1 mg/kg (iv given 5 min prior) in guinea pig; format: functional, Cardiac ventricle

Row | SMILES | Average dose (Cavia porcellus [1]) | Average dose (Cavia porcellus [2]) | Average dose (Cavia porcellus [3]) | No. of positive cases (Rattus norvegicus [6]) | Relative potency (Rattus norvegicus [9]) | ED150 (Rattus norvegicus [11]) | LD50 [12] | also measured
1 | CCN(CC)CC(=O)Nc1c(C)cccc1C [LIDOCAINE] | 0.2477 mg/kg | 0.2001 mg/kg | 0.2702 mg/kg | – | – | – | – | –
2 | Cc1cccc(C)c1OCC(C)N (configuration not stated) [MEXILETINE] | 0.2459 mg/kg | 0.1855 mg/kg | 0.2861 mg/kg | – | – | – | – | –
3 | Cc1cccc(C)c1NC(=O)C(C)N (configuration not stated) [TOCAINIDE] | 0.3581 mg/kg | 0.236 mg/kg | 0.3928 mg/kg | – | – | – | – | –
4 | Cc1cccc(C)c1OCC(C)NC(=O)C1CC(C)(C)N([O])C1(C)C (configuration not stated) | – | – | – | 6 | – | – | – | Relative potency (Rattus norvegicus [4]): 1.3; ED150 (Rattus norvegicus [5]): 9.2 mg/kg; LD50 (Rattus norvegicus [7]): 21 mg/kg
5 | CC1(C)C=C(C(=O)NCCCN2C(=O)c3ccccc3C2=O)C(C)(C)N1[O] | – | – | – | 0 | – | – | – | LD50 [8]: 187 mg/kg
6 | CCCc1ccc(OCC(=O)NCCCNC(=O)C2=CC(C)(C)NC2(C)C)c(OC)c1 | – | – | – | – | 4.1 | 2.9 mg/kg | 12 mg/kg | No. of positive cases (Rattus norvegicus [10]): 10
7 | CC.Cc1cccc(C)c1NC(=O)CNC(=O)C1CC(C)(C)N(O)C1(C)C (configuration not stated) | – | – | – | 0 | – | – | – | LD50 [13]: > 200 mg/kg
8 | C=CCc1ccc(OCC(=O)NCCCNC(=O)C2=CC(C)(C)NC2(C)C)c(OC)c1 | – | – | – | – | 8.5 | – | – | No. of positive cases (Rattus norvegicus [10]): 10; Average dose (Cavia porcellus [14]): 0.2266 mg/kg; Average dose (Cavia porcellus [15]): 0.3988 mg/kg; Average dose (Cavia porcellus [16]): 0.3536 mg/kg
9 | Cc1cccc(C)c1OCC(C)NC(=O)C1CC(C)(C)NC1(C)C (configuration not stated) | – | – | – | – | 30.5 | 0.39 mg/kg | 2 mg/kg | No. of positive cases (Rattus norvegicus [17]): 10
10 | Cc1cccc(C)c1OCC(C)NC(=O)C1=CC(C)(C)NC1(C)C (configuration not stated) | – | – | – | – | 12.8 | 0.93 mg/kg | 11 mg/kg | Average dose (Cavia porcellus [18]): 0.2534 mg/kg; No. of positive cases (Rattus norvegicus [17]): 10; Average dose (Cavia porcellus [19]): 0.3476 mg/kg; Average dose (Cavia porcellus [20]): 0.3166 mg/kg

Reference: ChEMBL document CHEMBL1123299, “New antiarrhythmic agents. 2,2,5,5-Tetramethyl-3-pyrroline-3-carboxamides and 2,2,5,5-tetramethylpyrrolidine-3-carboxamindes” (J Med Chem, 1986)
